# From article PMC2888050, “Cromoglycate drugs suppress eicosanoid generation in U937 cells by promoting the release of Anx-A1” (Biochemical Pharmacology, 2009)
# pIC50: −log10 of the molar value.
# Molecular target: T1, PP2A (Bos taurus, UniProt P67774)
# T1 construct: gene PPP2CA
# Assay: colorimetric pNPP phosphatase assay with purified enzyme, […] min pre-incubation
# Format: biochemical
# T1 sequence (P67774 whole entry): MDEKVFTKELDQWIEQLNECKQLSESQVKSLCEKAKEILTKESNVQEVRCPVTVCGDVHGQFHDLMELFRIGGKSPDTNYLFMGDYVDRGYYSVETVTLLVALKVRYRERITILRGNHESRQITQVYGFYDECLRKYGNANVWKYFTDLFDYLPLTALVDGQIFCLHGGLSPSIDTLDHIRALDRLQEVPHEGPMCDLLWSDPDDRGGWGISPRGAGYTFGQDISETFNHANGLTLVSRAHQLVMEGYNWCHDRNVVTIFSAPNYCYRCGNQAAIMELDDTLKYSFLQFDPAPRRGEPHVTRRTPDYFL
smiles,measurement,value
O=C(O)c1cc(=O)c2c(OCC(O)COc3cccc4oc(C(=O)O)cc(=O)c34)cccc2o1 [cromoglycate],pIC50,~8.77
CCCc1c2oc(C(=O)O)cc(=O)c2cc2c(=O)cc(C(=O)O)n(CC)c12 [nedocromil],pIC50,~9.19
